Data on eleven compounds can be found in ChEMBL document CHEMBL1201862, “PubChem BioAssay data set” (2004).

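Method: 48-hour compound exposure of cells in 96-well plates, five concentrations, linear interpolation of endpoints. GI50 is the concentration that inhibits growth by half.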 Active and inactive are the calls of the source. Cut-off read from the data, not from the text of the source: active = GI50 up to about 1.1 µM and inactive = higher.

Test systems include HCC 2998; COLO 205; LOX IMVI; IGROV-1; CCRF-CEM; NCI-H460; KM12; MOLT-4; M19-MEL; RPMI-8226; NCI-H522; SR; 786-0; SK-MEL-5; EKVX; OVCAR-4; SNB-19; MDA-N; Malme-3M; T47D.
Test in all cases: NCI anticancer screen, dose series, 48 h

Consider `Nc1ccn(C2CCC(CO)O2)c(=O)n1` (stereo unspecified), for which the GI50 in the assay with HCC 2998 was > 100 µM (inactive); with COLO 205 it was > 100 µM (inactive); in the assay with LOX IMVI it was > 100 µM (inactive); in the assay with IGROV-1 it was > 100 µM (inactive); with CCRF-CEM, 46.5 µM (inactive); in the assay on NCI-H460 it was > 100 µM (inactive). Moreover, the GI50 with KM12 is > 100 µM (inactive); with MOLT-4, 63.8 µM (inactive); in the assay on M19-MEL, > 100 µM (inactive); with RPMI-8226, > 100 µM (inactive); in the assay on NCI-H522, 656 µM (inactive); in the assay with SR, 367 µM (inactive). The GI50 was > 1000 µM (inactive) with 786-0; > 100 µM (inactive) in the assay with SK-MEL-5; > 100 µM (inactive) in the assay on EKVX; > 83 µM (inactive) with OVCAR-4; > 100 µM (inactive) in the assay with SNB-19; > 1000 µM (inactive) with MDA-N. The figures for the GI50 in the assay on Malme-3M and in the assay with T47D were > 100 µM (inactive) and > 1000 µM (inactive), respectively.
Regarding `NC1=NS(=O)(=O)Nc2nc(-c3ccccc3)c(-c3ccccc3)nc21`, the GI50 with HCC 2998, in the assay with COLO 205, in the assay with LOX IMVI, in the assay on IGROV-1, in the assay on CCRF-CEM and in the assay with NCI-H460 was > 100 µM (inactive) throughout. Besides, the GI50 in the assay on KM12, in the assay with MOLT-4, with M19-MEL, in the assay on RPMI-8226, with NCI-H522 and with SR was > 100 µM (inactive) throughout. For the same compound, the GI50 with 786-0, in the assay with SK-MEL-5, in the assay on EKVX, in the assay on OVCAR-4, in the assay with SNB-19 and with Malme-3M was > 100 µM (inactive) each time.
Regarding `CCc1nc2c(O)ccc(O)c2nc1C`, the GI50 in the assay with HCC 2998 was 24.6 µM (inactive); in the assay on COLO 205 it was 2.53 µM (inactive); in the assay with LOX IMVI it was 16.2 µM (inactive); in the assay with IGROV-1, 19 µM (inactive); with CCRF-CEM it was 2.9 µM (inactive); in the assay with NCI-H460, 19.2 µM (inactive). Further, the GI50 with KM12 is 17 µM (inactive); with MOLT-4 it was 3.65 µM (inactive); in the assay on M19-MEL, 7.35 µM (inactive); in the assay on RPMI-8226, 3.8 µM (inactive); in the assay with NCI-H522, 2.56 µM (inactive); with SR, 18.2 µM (inactive). The GI50 in the assay with 786-0 was 13.5 µM (inactive); in the assay on SK-MEL-5, 17.5 µM (inactive); in the assay with EKVX, 17.3 µM (inactive); in the assay on OVCAR-4, 6.75 µM (inactive); in the assay with SNB-19, 18.9 µM (inactive); in the assay on Malme-3M, 15.8 µM (inactive).
Turning to `O=C1C(Cl)C(c2cc(Br)ccc2O)N1n1cnc2ccccc2c1=O` (stereo unspecified), the GI50 with HCC 2998 is 17.4 µM (inactive); in the assay on COLO 205, 27.7 µM (inactive); with LOX IMVI, 6.64 µM (inactive); with IGROV-1, 17.5 µM (inactive); with CCRF-CEM, 3.28 µM (inactive); in the assay on NCI-H460, 6.62 µM (inactive). In addition, the GI50 in the assay with KM12 is 20.7 µM (inactive); with MOLT-4 it was 2.75 µM (inactive); in the assay with M19-MEL it was 10.7 µM (inactive); in the assay with RPMI-8226, 5.4 µM (inactive); with NCI-H522 it was 13.2 µM (inactive); in the assay with SR, 2.74 µM (inactive). In addition, the GI50 was 17.3 µM (inactive) with 786-0; 16.8 µM (inactive) in the assay with SK-MEL-5; 3.4 µM (inactive) in the assay on EKVX; 10.7 µM (inactive) in the assay with OVCAR-4; 14.5 µM (inactive) with SNB-19; 20.5 µM (inactive) in the assay with Malme-3M.
As to `Cc1cc(NCCCCCCCCNc2cc(C)nc3cc(N)ccc23)c2ccc(N)cc2n1`, the GI50 in the assay on HCC 2998 was 15.1 µM (inactive); in the assay with COLO 205, 6.4 µM (inactive); with LOX IMVI, 17.1 µM (inactive); with CCRF-CEM, 3.13 µM (inactive); with NCI-H460, 15.7 µM (inactive); in the assay with KM12, 12.5 µM (inactive). The GI50 in the assay on MOLT-4 is > 100 µM (inactive); in the assay with M19-MEL, 15.5 µM (inactive); in the assay with RPMI-8226 it was 6.68 µM (inactive); with NCI-H522, 3.78 µM (inactive); in the assay on SR it was 10.9 µM (inactive); in the assay on 786-0, 18.9 µM (inactive). The GI50 with SK-MEL-5 was 10.9 µM (inactive); with EKVX it was 22.2 µM (inactive); in the assay on OVCAR-4, 17.3 µM (inactive); in the assay with SNB-19, 14.1 µM (inactive).
Regarding `CC(C)(Br)C(=O)C(Br)Br`, the GI50 is 17.1 µM (inactive) with HCC 2998; 2.74 µM (inactive) in the assay on COLO 205; 4.86 µM (inactive) in the assay on LOX IMVI; 8.22 µM (inactive) with IGROV-1; 1.51 µM (inactive) in the assay with CCRF-CEM; 18.1 µM (inactive) in the assay on NCI-H460. For the same compound, the GI50 was 16.8 µM (inactive) with KM12; 1.67 µM (inactive) with MOLT-4; 6.01 µM (inactive) in the assay on M19-MEL; 1.67 µM (inactive) with NCI-H522; 13.8 µM (inactive) with 786-0; 12.4 µM (inactive) with SK-MEL-5. In addition, the GI50 in the assay with EKVX was 13.8 µM (inactive); with OVCAR-4, 5.09 µM (inactive); in the assay with SNB-19, 19.7 µM (inactive); in the assay on MDA-N, 5.3 µM (inactive); in the assay on Malme-3M, 2.01 µM (inactive); in the assay on T47D, 6.22 µM (inactive).
Consider `Fc1ccc(C2SCc3nc4ccccc4n32)c(F)c1` (stereo unspecified), for which the GI50 is 98.6 µM (inactive) in the assay on HCC 2998; > 100 µM (inactive) in the assay with COLO 205; 81.5 µM (inactive) with LOX IMVI; > 100 µM (inactive) with IGROV-1; 51.6 µM (inactive) with CCRF-CEM; 54 µM (inactive) with NCI-H460. The GI50 is 46.3 µM (inactive) in the assay on KM12; 30.5 µM (inactive) in the assay with MOLT-4; 65.5 µM (inactive) with M19-MEL; 37.9 µM (inactive) in the assay on RPMI-8226; 30.1 µM (inactive) in the assay on NCI-H522; 34.6 µM (inactive) in the assay on SR. Besides, the GI50 in the assay on 786-0 was > 100 µM (inactive); with SK-MEL-5, 32.1 µM (inactive); in the assay on EKVX it was > 100 µM (inactive); in the assay on OVCAR-4, 95.7 µM (inactive); with SNB-19, > 100 µM (inactive); with Malme-3M, 80.4 µM (inactive).
Consider `CC(C)(C)c1cc2c3c(c1)C(C(F)(F)F)(C(F)(F)F)O[Te]3(C)OC2(C(F)(F)F)C(F)(F)F`, for which the GI50 in the assay on HCC 2998, with COLO 205, with LOX IMVI, in the assay on IGROV-1, in the assay on CCRF-CEM and in the assay with NCI-H460 was > 100 µM (inactive) throughout. Also, the GI50 in the assay on KM12, in the assay with MOLT-4, with M19-MEL, with RPMI-8226, with NCI-H522 and in the assay with SR was > 100 µM (inactive) each time. Also, the GI50 in the assay with 786-0, with EKVX, with OVCAR-4, with SNB-19 and in the assay with Malme-3M was > 100 µM (inactive) each time.
As to `Cc1ccc(C2(O)CC(c3ccc([N+](=O)[O-])o3)=NN2C(=O)COc2ccccc2Cl)cc1` (stereo unspecified), the GI50 with HCC 2998 was 10.4 µM (inactive); in the assay on COLO 205 it was 3.78 µM (inactive); with LOX IMVI, 5.45 µM (inactive); in the assay with IGROV-1, 15.9 µM (inactive); in the assay with CCRF-CEM it was 5.45 µM (inactive); in the assay with NCI-H460, 5.73 µM (inactive). Also, the GI50 with KM12 is 8.83 µM (inactive); in the assay with MOLT-4 it was 3.91 µM (inactive); with M19-MEL, 3.69 µM (inactive); in the assay on RPMI-8226 it was 3.53 µM (inactive); with NCI-H522 it was 13.1 µM (inactive); with SR it was 3.24 µM (inactive). In addition, the GI50 is 5.75 µM (inactive) with 786-0; 2.75 µM (inactive) in the assay on SK-MEL-5; 13.6 µM (inactive) with EKVX; 17.3 µM (inactive) in the assay with OVCAR-4; 14.8 µM (inactive) in the assay on SNB-19; 13.8 µM (inactive) with Malme-3M.
For `N#Cc1c2nc3ccccc3nc2n2ccccc12`, the GI50 in the assay with HCC 2998, in the assay on COLO 205, in the assay with LOX IMVI, with IGROV-1, in the assay on CCRF-CEM and with NCI-H460 was > 100 µM (inactive) throughout. The GI50 with KM12, in the assay on MOLT-4, with M19-MEL, in the assay with RPMI-8226, in the assay with NCI-H522 and in the assay on SR was > 100 µM (inactive) in each case. For the same compound, the GI50 in the assay with 786-0, in the assay with SK-MEL-5, with EKVX, in the assay on OVCAR-4, in the assay with SNB-19 and with Malme-3M was > 100 µM (inactive) each time.
Regarding `CC12OC3CC(O1)C1(C=O)C4CCC5(C)C(c6ccc(=O)oc6)CCC5(O)C4CCC1(C3)O2` (stereo unspecified), the GI50 with HCC 2998 was 0.56 µM (active); with COLO 205 it was 0.483 µM (active); in the assay on LOX IMVI, 0.177 µM (active); in the assay with IGROV-1, 0.341 µM (active); in the assay with CCRF-CEM, 0.0735 µM (active); in the assay with NCI-H460, 0.0518 µM (active). In addition, the GI50 with KM12 is 0.379 µM (active); with MOLT-4, 0.0344 µM (active); with M19-MEL it was 0.258 µM (active); in the assay with RPMI-8226, 0.0313 µM (active); in the assay on NCI-H522, 0.0479 µM (active); in the assay with SR, 0.0498 µM (active). Besides, the GI50 in the assay with 786-0 is 0.122 µM (active); with SK-MEL-5, 0.0895 µM (active); in the assay on OVCAR-4, 0.155 µM (active); with SNB-19 it was 0.573 µM (active); with Malme-3M, 0.198 µM (active).
